Experimental data as given in the supplement of paper PMC12463676, “Small-molecule dissolution of stress granules by redox modulation benefits ALS models” (Nature Chemical Biology, 2025).

Assays:
[1] = compound: NC(=O)CCCCC1CCSS1 [lipoamide]; test: thermal stability z-score vs DMSO; higher = more thermally stabilized by treatment; conditions: HeLa, lipoamide concentration 100 µM
Method: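 Cellular thermal proteome profiling in HeLa cells. Cells were treated with 100 µM lipoamide for 1 h, with or without 1 mM arsenate for a further 1 h, then heated to ten temperatures (37-66.3 °C), and soluble protein was quantified by TMT mass spectrometry relative to 0.1% DMSO controls. The thermal stability score (sum of log2 fold changes minus the abundance score) was transformed to a z-score; mean of n = 3 experiments.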

[2] = compound: O=[As]([O-])(O)O.[K+] [potassium arsenate]; test: as above; conditions: HeLa; arsenate concentration 1 mM
Method: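 Cellular thermal proteome profiling in HeLa cells treated with 1 mM arsenate for 1 h (DMSO pretreatment), heated to ten temperatures (37-66.3 °C). Soluble protein was quantified by TMT mass spectrometry relative to DMSO controls; the thermal stability score was transformed to a z-score; mean of n = 3 experiments.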

[3] = arsenate co-treatment: 1 mM arsenate 1 h
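Note: each temperature applied for 3 min, abundance score taken as mean log2 fold change at the two lowest temperatures, z-score obtained by mean subtraction and division by SD.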

UniProt O95999, sequence (O95999 whole entry): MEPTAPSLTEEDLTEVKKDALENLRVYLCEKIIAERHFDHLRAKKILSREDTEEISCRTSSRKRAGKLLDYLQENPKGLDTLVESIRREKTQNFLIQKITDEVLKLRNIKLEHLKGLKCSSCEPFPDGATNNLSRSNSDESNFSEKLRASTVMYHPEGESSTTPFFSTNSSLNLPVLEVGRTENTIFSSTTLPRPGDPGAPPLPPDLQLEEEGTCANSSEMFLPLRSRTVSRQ
UniProt P09874, sequence (P09874 whole entry): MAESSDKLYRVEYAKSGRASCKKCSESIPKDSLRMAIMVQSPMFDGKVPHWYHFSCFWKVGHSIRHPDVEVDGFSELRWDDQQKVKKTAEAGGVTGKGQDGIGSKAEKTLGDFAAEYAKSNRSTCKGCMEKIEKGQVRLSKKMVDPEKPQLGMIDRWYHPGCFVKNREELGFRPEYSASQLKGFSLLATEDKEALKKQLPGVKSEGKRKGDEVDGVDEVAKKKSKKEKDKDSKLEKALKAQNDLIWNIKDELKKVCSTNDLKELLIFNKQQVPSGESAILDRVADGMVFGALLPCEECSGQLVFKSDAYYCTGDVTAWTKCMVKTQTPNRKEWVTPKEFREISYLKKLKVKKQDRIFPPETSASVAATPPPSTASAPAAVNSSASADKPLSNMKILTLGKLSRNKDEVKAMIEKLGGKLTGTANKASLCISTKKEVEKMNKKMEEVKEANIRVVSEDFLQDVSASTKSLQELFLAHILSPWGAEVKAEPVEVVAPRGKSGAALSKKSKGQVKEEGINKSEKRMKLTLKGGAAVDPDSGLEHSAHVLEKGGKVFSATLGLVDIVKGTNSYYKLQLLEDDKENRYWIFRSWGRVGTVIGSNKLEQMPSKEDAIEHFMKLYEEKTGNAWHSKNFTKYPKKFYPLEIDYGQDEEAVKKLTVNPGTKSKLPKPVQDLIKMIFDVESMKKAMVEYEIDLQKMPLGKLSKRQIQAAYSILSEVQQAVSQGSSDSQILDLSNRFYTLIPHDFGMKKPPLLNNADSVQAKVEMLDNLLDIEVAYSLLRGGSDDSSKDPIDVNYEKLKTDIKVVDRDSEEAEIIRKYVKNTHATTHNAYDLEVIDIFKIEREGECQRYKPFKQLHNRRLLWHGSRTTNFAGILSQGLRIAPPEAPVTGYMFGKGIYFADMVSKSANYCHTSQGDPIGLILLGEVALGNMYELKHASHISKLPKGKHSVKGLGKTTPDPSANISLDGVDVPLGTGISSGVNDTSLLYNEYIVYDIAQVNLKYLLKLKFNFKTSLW
UniProt O14545, sequence (O14545 whole entry): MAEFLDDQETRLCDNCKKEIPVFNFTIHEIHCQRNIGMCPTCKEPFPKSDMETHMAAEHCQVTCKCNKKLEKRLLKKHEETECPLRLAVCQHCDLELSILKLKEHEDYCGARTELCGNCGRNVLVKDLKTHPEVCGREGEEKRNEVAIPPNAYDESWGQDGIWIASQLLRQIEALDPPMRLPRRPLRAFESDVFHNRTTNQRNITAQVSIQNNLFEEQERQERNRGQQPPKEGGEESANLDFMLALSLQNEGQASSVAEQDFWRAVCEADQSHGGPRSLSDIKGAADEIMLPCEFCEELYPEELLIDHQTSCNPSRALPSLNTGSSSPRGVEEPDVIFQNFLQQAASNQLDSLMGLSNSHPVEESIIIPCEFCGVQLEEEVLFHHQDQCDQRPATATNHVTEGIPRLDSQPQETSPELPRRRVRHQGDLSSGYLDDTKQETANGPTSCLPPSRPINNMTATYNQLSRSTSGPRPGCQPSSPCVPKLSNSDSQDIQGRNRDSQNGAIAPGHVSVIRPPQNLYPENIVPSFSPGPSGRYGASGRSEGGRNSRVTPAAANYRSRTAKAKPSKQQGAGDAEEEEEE
UniProt Q00765, sequence (Q00765 whole entry): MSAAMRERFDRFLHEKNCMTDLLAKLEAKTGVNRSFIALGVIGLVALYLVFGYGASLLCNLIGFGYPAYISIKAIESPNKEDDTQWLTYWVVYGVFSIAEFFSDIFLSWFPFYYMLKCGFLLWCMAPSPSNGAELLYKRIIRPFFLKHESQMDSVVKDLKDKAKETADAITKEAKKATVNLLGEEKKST
UniProt Q9Y4E6, sequence (Q9Y4E6 whole entry): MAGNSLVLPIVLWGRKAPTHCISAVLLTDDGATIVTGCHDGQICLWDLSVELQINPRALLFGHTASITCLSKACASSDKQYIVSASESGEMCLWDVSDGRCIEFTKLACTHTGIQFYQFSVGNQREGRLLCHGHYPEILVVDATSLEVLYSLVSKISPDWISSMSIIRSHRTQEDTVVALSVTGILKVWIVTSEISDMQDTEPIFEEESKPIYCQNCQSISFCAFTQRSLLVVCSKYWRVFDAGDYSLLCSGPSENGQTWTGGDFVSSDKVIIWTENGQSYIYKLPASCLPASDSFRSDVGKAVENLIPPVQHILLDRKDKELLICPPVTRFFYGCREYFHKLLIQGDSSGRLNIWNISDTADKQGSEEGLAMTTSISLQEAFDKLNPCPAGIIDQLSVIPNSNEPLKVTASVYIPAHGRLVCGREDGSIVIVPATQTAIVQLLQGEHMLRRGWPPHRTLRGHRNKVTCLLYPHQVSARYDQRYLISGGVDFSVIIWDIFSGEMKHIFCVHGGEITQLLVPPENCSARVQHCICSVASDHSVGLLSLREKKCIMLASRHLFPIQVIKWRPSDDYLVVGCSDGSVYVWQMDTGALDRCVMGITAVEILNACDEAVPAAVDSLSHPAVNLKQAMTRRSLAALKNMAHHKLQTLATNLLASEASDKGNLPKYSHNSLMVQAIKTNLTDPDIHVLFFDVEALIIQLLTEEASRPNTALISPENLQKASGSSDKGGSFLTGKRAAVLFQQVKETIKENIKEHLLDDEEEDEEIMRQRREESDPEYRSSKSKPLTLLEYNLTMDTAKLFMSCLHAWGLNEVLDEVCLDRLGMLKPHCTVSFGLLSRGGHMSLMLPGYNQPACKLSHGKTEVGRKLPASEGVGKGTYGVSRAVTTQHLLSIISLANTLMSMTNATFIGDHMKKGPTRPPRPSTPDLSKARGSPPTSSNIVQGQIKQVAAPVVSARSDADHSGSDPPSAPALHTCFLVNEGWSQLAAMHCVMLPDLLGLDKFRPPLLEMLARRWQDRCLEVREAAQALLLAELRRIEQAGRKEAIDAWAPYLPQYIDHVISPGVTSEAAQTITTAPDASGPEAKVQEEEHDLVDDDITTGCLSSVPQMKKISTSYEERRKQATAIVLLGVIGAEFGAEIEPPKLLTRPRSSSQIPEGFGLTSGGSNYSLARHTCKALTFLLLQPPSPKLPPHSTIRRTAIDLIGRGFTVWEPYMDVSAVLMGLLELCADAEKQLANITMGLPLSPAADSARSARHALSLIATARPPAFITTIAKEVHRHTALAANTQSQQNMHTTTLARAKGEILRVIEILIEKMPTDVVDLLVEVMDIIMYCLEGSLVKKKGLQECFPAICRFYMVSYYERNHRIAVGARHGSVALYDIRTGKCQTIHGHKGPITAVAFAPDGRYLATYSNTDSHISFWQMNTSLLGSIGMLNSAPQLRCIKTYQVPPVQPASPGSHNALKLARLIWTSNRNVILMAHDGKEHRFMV
UniProt O96008, sequence (O96008 whole entry): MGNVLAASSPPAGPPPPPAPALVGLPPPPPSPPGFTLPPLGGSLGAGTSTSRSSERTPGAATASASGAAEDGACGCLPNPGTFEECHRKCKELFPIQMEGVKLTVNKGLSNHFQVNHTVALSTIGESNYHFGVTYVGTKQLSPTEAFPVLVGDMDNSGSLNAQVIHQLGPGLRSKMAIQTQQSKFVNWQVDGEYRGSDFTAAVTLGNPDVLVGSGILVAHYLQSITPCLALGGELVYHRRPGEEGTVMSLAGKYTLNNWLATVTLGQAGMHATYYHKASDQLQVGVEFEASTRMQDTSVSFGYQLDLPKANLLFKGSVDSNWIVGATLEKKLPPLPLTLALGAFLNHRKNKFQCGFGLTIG
UniProt Q9P032, sequence (Q9P032 whole entry): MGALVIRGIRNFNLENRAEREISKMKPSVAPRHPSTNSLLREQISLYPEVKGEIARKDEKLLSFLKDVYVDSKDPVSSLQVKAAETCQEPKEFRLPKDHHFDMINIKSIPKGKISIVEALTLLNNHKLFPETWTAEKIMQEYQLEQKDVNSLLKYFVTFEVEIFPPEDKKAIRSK
UniProt Q6MZP7, sequence (Q6MZP7 whole entry): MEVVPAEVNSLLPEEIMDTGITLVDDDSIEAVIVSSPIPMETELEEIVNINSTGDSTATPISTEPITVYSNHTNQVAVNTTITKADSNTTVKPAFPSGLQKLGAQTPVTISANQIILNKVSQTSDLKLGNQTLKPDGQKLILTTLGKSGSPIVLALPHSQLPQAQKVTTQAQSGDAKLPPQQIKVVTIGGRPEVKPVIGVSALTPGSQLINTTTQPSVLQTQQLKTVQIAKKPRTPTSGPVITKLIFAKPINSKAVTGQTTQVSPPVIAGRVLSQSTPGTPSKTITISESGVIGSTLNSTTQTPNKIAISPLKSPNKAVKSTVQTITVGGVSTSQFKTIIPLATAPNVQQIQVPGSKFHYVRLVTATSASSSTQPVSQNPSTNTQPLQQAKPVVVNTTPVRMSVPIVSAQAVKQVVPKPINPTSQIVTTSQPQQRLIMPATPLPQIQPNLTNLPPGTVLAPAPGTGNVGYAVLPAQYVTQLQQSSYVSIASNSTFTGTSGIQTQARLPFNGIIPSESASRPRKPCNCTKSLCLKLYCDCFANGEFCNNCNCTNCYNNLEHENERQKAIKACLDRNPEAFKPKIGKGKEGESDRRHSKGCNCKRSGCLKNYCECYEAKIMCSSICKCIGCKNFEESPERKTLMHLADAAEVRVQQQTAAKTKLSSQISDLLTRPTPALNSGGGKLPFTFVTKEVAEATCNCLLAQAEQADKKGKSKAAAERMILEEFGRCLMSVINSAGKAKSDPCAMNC
UniProt P06730, sequence (P06730 whole entry): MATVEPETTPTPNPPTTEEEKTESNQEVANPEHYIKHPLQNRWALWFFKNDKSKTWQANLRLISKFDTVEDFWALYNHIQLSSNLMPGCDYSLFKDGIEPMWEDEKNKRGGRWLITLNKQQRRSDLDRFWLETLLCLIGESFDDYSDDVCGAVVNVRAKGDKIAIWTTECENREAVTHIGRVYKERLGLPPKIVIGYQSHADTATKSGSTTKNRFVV

Target	thermal stability z-score [1, 3]	thermal stability z-score ([1]; arsenate co-treatment: none)	thermal stability z-score [2]
TEX30 (UniProt Q5JUR7)	0.373	-0.174	-0.411
SACS (UniProt Q9NZJ4)	-0.17	-0.0653	0.0609
GPATCH4 (UniProt Q5T3I0)	1.04	0.36	0.695
USP11 (UniProt P51784)	-0.0801	-0.162	0.143
TIMM50 (UniProt Q3ZCQ8)	-0.412	-0.179	-0.391
SELO (UniProt Q9BVL4)	-0.214	-0.211	-0.536
ARHGAP1 (UniProt Q07960)	-1.02	-0.692	-0.115
TMPIT|TMEM120A	0.15	0.398	-0.269
ADPRHL2 (UniProt Q9NX46)	0.435	-0.109	-0.268
GUSB (UniProt P08236)	-0.178	-0.261	0.885
LIN54 (UniProt Q6MZP7)	0.0767	-0.0219	0.0147
GABARAPL2 (UniProt P60520)	0.14	-0.266	0.209
DOCK5 (UniProt Q9H7D0)	-0.433	-0.478	-0.0423
RUFY2 (UniProt Q8WXA3)	-0.19	-0.0853	-0.0152
LIPA (UniProt P38571)	-0.674	-0.352	0.119
CBR3 (UniProt O75828)	0.347	-0.0437	0.282
TRAFD1 (UniProt O14545)	-1.34	-0.816	-2.25
CERCAM (UniProt Q5T4B2)	-0.0616	-0.543	-0.44
PHYH (UniProt O14832)	0.0197	-0.12	-0.196
PFDN6 (UniProt O15212)	1.95	2.18	1.42
REEP5 (UniProt Q00765)	0.359	1	0.354
FAM213A (UniProt Q9BRX8)	-0.192	-0.476	-0.29
CAMLG (UniProt P49069)	0.508	0.0877	0.0417
BCL10 (UniProt O95999)	0.00285	0.509	2.16
DPP3 (UniProt Q9NY33)	0.77	0.569	-0.00156
UBASH3B (UniProt Q8TF42)	-0.0394	-0.103	-0.165
REXO4 (UniProt Q9GZR2)	-0.103	-0.118	-0.149
MRPS18A (UniProt Q9NVS2)	-0.573	-0.402	0.196

Target	thermal stability z-score [1, 3]	thermal stability z-score ([1]; arsenate co-treatment: none)	thermal stability z-score [2]
RBMS2 (UniProt Q15434)	0.0996	0.158	-0.0696
COQ9 (UniProt O75208)	-0.364	-0.531	1.61
MARS2 (UniProt Q96GW9)	0.482	0.957	0.992
SF3A1 (UniProt Q15459)	-0.152	0.106	-1.3
SBF2 (UniProt Q86WG5)	-0.149	-0.0174	-0.179
METTL5 (UniProt Q9NRN9)	0.768	-0.318	0.233
ALDH1B1 (UniProt P30837)	1.12	0.881	-1.44
PARP1 (UniProt P09874)	-0.643	0.7	-2.03
NDUFAF4 (UniProt Q9P032)	-0.153	0.199	0.182
THEM6 (UniProt Q8WUY1)	0.308	0.289	0.723
ELMOD2 (UniProt Q8IZ81)	-0.403	-0.238	0.198
VBP1 (UniProt P61758)	-0.615	-0.366	-0.72
PUDP (UniProt Q08623)	0.292	-0.0843	-1.3
NAV1 (UniProt Q8NEY1)	-0.0334	0.0173	0.073
EXD2 (UniProt Q9NVH0)	-0.228	-0.168	-0.499
RIF1 (UniProt Q5UIP0)	0.0548	-0.0166	-0.353
OTUD4 (UniProt Q01804)	0.168	0.183	0.258
CCNH (UniProt P51946)	-0.00877	0.0852	0.325
ENAH (UniProt Q8N8S7)	-0.14	0.013	-0.515
EIF4E (UniProt P06730)	0.236	-0.135	0.461
DHX57 (UniProt Q6P158)	-0.125	-0.0979	-0.286
WDR7 (UniProt Q9Y4E6)	-0.338	0.149	-0.351
TOMM40 (UniProt O96008)	0.59	0.961	1.15
TIMP1 (UniProt P01033)	-0.407	-1.02	-0.272
CD70 (UniProt P32970)	1.03	0.355	-0.313
ALKBH2 (UniProt Q6NS38)	0.407	0.149	1.45
ILVBL (UniProt A1L0T0)	1.34	0.509	0.772
